From US11230532B2, “Pyrimidines and variants thereof, and uses therefor” (Afferent Pharmaceuticals Inc., priority 2016, dated 2022)
Where two headings read alike, the source gives them in different places.

Columns and labels:
P2X3 [1] = conditions: oxygen-linked analogs; from Carter et al, Bioorg Med Chem Lett 2009; cited from earlier work
P2X3 [2] = assay: Mean pIC50s at P2X3 from Carter et al (literature); assay type: cell-based

Structure (SMILES)	P2X3 mean pIC50, X = O (P2X3 [1])	Selectivity, X = O (P2X3 [2]; potency ratio P2X3 over P2X2/3 from the cited pIC50s)	Selectivity, X = O (P2X3 [2])
COc1cc(Oc2cnc(N)nc2N)c(C(C)C)cc1OC [Row A, X = O, reference compound]	7.6		
COc1cc(C(C)C)c(Oc2cnc(N)nc2N)cc1Cl [D, X = O]	7.6	4	
COc1cc(C(C)C)c(Oc2cnc(N)nc2N)cc1S(C)(=O)=O [C, X = O]	7.0		10
COc1cc(C(C)C)c(Oc2cnc(N)nc2N)cc1I [B, X = O]	8.0		8
